Assays:
Format in all cases: in vivo
Puccinia recondita = experiment: Brown rust (Puccinia recondita--PUCCRT); settings: wheat (cultivar Monon), 100 ppm spray to run off, inoculated after 24 hours; for pest or weed control at 100 ppm: Puccinia recondita, 1DP, read-out: control of plant disease, PUCCRT 1DP
Procedure: (§1) Compound Formulation: Compound formulation was accomplished by dissolving technical materials in acetone, with serial dilutions then made in acetone to obtain desired rates. Final treatment volumes were obtained by adding nine volumes 0.05% aqueous Tween-20 or Triton X-100, depending upon the pathogen.
(§2) Brown rust (Puccinia recondita--PUCCRT): Wheat (cultivar Monon) was grown from seed in a soilless peat-based potting mixture (Metromix) until the seedlings were 1-2). These plants were then sprayed to run off with the test compound at a rate of 100 ppm. After 24 hours the test plants were inoculated with an aqueous spore suspension of Puccinia recondita. The plants were then transferred to the greenhouse until disease developed on the untreated control plants.
(§3) the following table presents the activity of typical compounds of the present invention when evaluated in these experiments. The effectiveness of the test compounds in controlling disease was rated using the following scale: […]

Erysiphe graminis = experiment: Powdery Mildew of Wheat (Erysiphe graminis--ERYSGT); settings: wheat (cultivar Monon), 100 ppm spray to run off, inoculated after 24 hours; for pest or weed control at 100 ppm: Blumeria graminis, 1DP, read-out: control of plant disease, ERYSGT 1DP
Procedure: as §1
Powdery Mildew of Wheat (Erysiphe graminis--ERYSGT): Wheat (cultivar Monon) was grown in a soilless peat-based potting mixture (Metromix) until the seedlings were 1-2 leaf (BBCH 12). These plants were then sprayed to run off with the test compound at a rate of 100 ppm. After 24 hours the test plants were inoculated with Erysiphe graminis by dusting spores from stock plants onto the test plants. The plants were then transferred to the greenhouse until disease developed on the untreated control plants.
as §3

Leptosphaeria nodorum = experiment: Glume blotch of wheat (Leptosphaeria nodorum--LEPTNO); settings: wheat (cultivar Monon), 100 ppm spray to run off, inoculated after 24 hours; for pest or weed control at 100 ppm: Parastagonospora nodorum, 1DP, read-out: control of plant disease, LEPTNO 1DP
Procedure: as §1
as §2, with “Glume blotch of wheat (Leptosphaeria nodorum--LEPTNO):” for “Brown rust (Puccinia recondita--PUCCRT):”, “1-2 leaf (BBCH 12).” for “1-2).”, “Leptosphaeria nodorum.” for “Puccinia recondita.”
as §3

Phytophthora infestans = experiment: whole plant or invertebrate; settings: for pest or weed control at 100 ppm: Phytophthora infestans, 24 h, read-out: control of plant disease, PHYTIN 1DP; for control of plant disease, PHYTIN 1DP: tomatoes (cultivar Rutgers), 100 ppm spray to run off, inoculated after 24 hours

Compound	pest or weed control at 100 ppm (Puccinia recondita) [%]	pest or weed control at 100 ppm (Erysiphe graminis) [%]	pest or weed control at 100 ppm (Leptosphaeria nodorum) [%]	pest or weed control at 100 ppm (Phytophthora infestans) [%]	control of plant disease, PUCCRT 1DP (Puccinia recondita)	control of plant disease, ERYSGT 1DP (Erysiphe graminis)	control of plant disease, PHYTIN 1DP (Phytophthora infestans)	control of plant disease, LEPTNO 1DP (Leptosphaeria nodorum)
CNC(=O)C(=NOC)c1ccccc1COc1ncc(-c2nc(C(C)C)no2)cc1Cl [Example 59]	75 to 100	75 to 100	75 to 100	–	–	–	–	–
CNC(=O)C(=NOC)c1ccccc1COc1ncc(-c2noc(C(C)(C)C)n2)cc1Cl [Example 6, Benzeneacetamide, 2-[[[3-chloro-5-(5-t-butyl-1,2,4-oxadiazol-3-yl)-2-pyridinyl]oxy]methyl]-α-(methoxyimino)-N-methyl-]	75 to 100	75 to 100	75 to 100	75 to 100	–	–	–	–
CNC(=O)C(=NOC)c1ccccc1COc1ccc(-c2cc(-c3ccccc3)on2)cn1 [Example 44]	–	–	–	0 to 24	–	–	–	–
CCCc1noc(-c2ccc(OCc3ccccc3C(=NOC)C(=O)NC)nc2)n1 [Example 74]	75 to 100	75 to 100	0 to 24	0 to 24	–	–	–	–
CCC=Cc1nc(-c2cnc(OCc3ccccc3C(=NOC)C(=O)NC)c(Cl)c2)no1 [Example 22]	75 to 100	75 to 100	75 to 100	0 to 24	–	–	–	–
COC=C(C(=O)OC)c1ccccc1COc1ncc(-c2nc(C(C)(C)C)no2)cc1Cl [Example 100]	75 to 100	25 to 74	25 to 74	75 to 100	–	–	–	–
CNC(=O)C(=NOC)c1ccccc1COc1ncc(-c2nnc(C)o2)cc1Cl [Example 3]	75 to 100	75 to 100	75 to 100	75 to 100	–	–	–	–
CNC(=O)C(=NOC)c1ccccc1COc1ncc(-c2nc(C(C)(C)C)no2)cc1C [Example 60]	75 to 100	75 to 100	75 to 100	–	–	–	–	–
CCc1noc(-c2cnc(OCc3ccccc3C(=NOC)C(=O)NC)c(Cl)c2)n1 [Example 54]	75 to 100	75 to 100	75 to 100	75 to 100	–	–	–	–
CNC(=O)C(=NOC)c1ccccc1COc1ncc(-c2nnc(C(C)(C)C)o2)cc1Cl [Example 4]	75 to 100	75 to 100	75 to 100	0 to 24	–	–	–	–
CNC(=O)C(=NOC)c1cccc(F)c1COc1ncc(-c2noc(C(F)(F)F)n2)cc1Cl [Example 32]	–	–	–	–	++ (75-100% control of plant disease)	++ (75-100% control of plant disease)	- (0-24% control of plant disease)	+ (25-74% control of plant disease)
CNC(=O)C(=NOC)c1ccccc1COc1ncc(-c2nc(CSc3ccccc3)no2)cc1Cl [Example 58]	75 to 100	75 to 100	75 to 100	–	–	–	–	–
CNC(=O)C(=NOC)c1ccccc1COc1ncc(-c2nc(CC(C)C)no2)cc1Cl [Example 77]	75 to 100	75 to 100	75 to 100	0 to 24	–	–	–	–
CNC(=O)C(=NOC)c1ccccc1COc1ncc(-c2noc(COC)n2)cc1Cl [Example 23]	75 to 100	75 to 100	25 to 74	0 to 24	–	–	–	–
CNC(=O)C(=NOC)c1ccccc1COc1ncc(-c2nc(C)no2)cc1Cl [Example 49, Benzeneacetamide, 2-[[[3-chloro-5-(3-methyl-1,2,4-oxadiazol-5-yl)-2-pyridinyl]oxy]methyl]-α-(methoxyimino)-N-methyl-]	75 to 100	75 to 100	75 to 100	0 to 24	–	–	–	–
CNC(=O)C(=NOC)c1ccccc1COc1ccc(Cl)c(-c2nc(C(C)(C)C)no2)n1 [Example 82]	75 to 100	75 to 100	75 to 100	75 to 100	–	–	–	–
CNC(=O)C(=NOC)c1ccccc1COc1ncc(-c2nc(C3CC3)no2)cc1Cl [Example 53]	75 to 100	75 to 100	25 to 74	75 to 100	–	–	–	–
CNC(=O)C(=NOC)c1ccccc1COc1ncc(-c2noc(-c3ccco3)n2)cc1Cl [Example 18]	75 to 100	25 to 74	75 to 100	75 to 100	–	–	–	–

Compound	pest or weed control at 100 ppm (Puccinia recondita) [%]	pest or weed control at 100 ppm (Erysiphe graminis) [%]	pest or weed control at 100 ppm (Leptosphaeria nodorum) [%]	pest or weed control at 100 ppm (Phytophthora infestans) [%]	control of plant disease, PUCCRT 1DP (Puccinia recondita)	control of plant disease, ERYSGT 1DP (Erysiphe graminis)	control of plant disease, PHYTIN 1DP (Phytophthora infestans)	control of plant disease, LEPTNO 1DP (Leptosphaeria nodorum)
CNC(=O)C(=NOC)c1ccccc1COc1ncc(-c2nc(CSC)no2)cc1Cl [Example 62]	75 to 100	75 to 100	75 to 100	–	–	–	–	–
CNC(=O)C(=NOC)c1ccccc1COc1ncc(-c2noc(-c3cccs3)n2)cc1Cl [Example 20]	75 to 100	75 to 100	0 to 24	75 to 100	–	–	–	–
CNC(=O)C(=NOC)c1ccccc1COc1ncc(-c2noc(CCCl)n2)cc1Cl [Example 26]	75 to 100	75 to 100	75 to 100	75 to 100	–	–	–	–
CCc1nc(-c2cnc(OCc3ccccc3C(=NOC)C(=O)NC)c(Cl)c2)no1 [Example 36]	75 to 100	75 to 100	75 to 100	0 to 24	–	–	–	–
CNC(=O)C(=NOC)c1ccccc1COc1ncc(-c2cc(C(C)C)on2)cc1Cl [Example 38]	75 to 100	75 to 100	75 to 100	0 to 24	–	–	–	–
CNC(=O)C(=NOC)c1ccccc1COc1ncc(-c2nc(-c3ccccc3)no2)cc1Cl [Example 48]	75 to 100	75 to 100	25 to 74	75 to 100	–	–	–	–
O=C(NNC(=O)C1CC1)c1cnc(Cl)c(Cl)c1 [Example 19]	–	–	–	–	++ (75-100% control of plant disease)	++ (75-100% control of plant disease)	- (0-24% control of plant disease)	++ (75-100% control of plant disease)
CNC(=O)C(=NOC)c1cccc(Cl)c1COc1cccc(-c2nc(C(C)(C)C)no2)n1 [Example 86]	–	–	–	–	++ (75-100% control of plant disease)	++ (75-100% control of plant disease)	+ (25-74% control of plant disease)	- (0-24% control of plant disease)
CNC(=O)C(=NOC)c1ccccc1COc1ncc(-c2noc(C(F)(F)F)n2)cc1Cl [Example 11]	75 to 100	75 to 100	75 to 100	0 to 24	–	–	–	–
CON=C(C(=O)OC)c1ccccc1COc1ncc(-c2noc(C(C)(C)C)n2)cc1Cl [Example 97]	75 to 100	75 to 100	75 to 100	75 to 100	–	–	–	–
CCCc1noc(-c2cnc(OCc3ccccc3C(=NOC)C(=O)NC)c(Cl)c2)n1 [Example 78]	75 to 100	75 to 100	75 to 100	0 to 24	–	–	–	–
CNC(=O)C(=NOC)c1ccccc1COc1ccc(-c2cc(C)on2)cn1 [Example 45]	–	–	–	25 to 74	–	–	–	–
CNC(=O)C(=NOC)c1ccccc1COc1ncc(-c2cc(C)no2)cc1Cl [Example 79]	–	–	–	0 to 24	–	–	–	–
CCc1cc(-c2ccc(OCc3ccccc3C(=NOC)C(=O)NC)nc2)on1 [Example 80]	–	–	–	0 to 24	–	–	–	–
CNC(=O)C(=NOC)c1ccccc1COc1ncc(-c2nc(COc3ccccc3)no2)cc1Cl [Example 57]	75 to 100	75 to 100	25 to 74	–	–	–	–	–
CCc1noc(-c2ccc(OCc3ccccc3C(=NOC)C(=O)NC)nc2)n1 [Example 63]	75 to 100	75 to 100	25 to 74	–	–	–	–	–
CNC(=O)C(=NOC)c1ccccc1COc1ncc(-c2nc(COC)no2)cc1Cl [Example 61]	75 to 100	75 to 100	0 to 24	–	–	–	–	–
